In patent publication US10543216B2, “Modus of administration of iron, and new formulations adapted for the said goal” (BIOFER S.P.A., priority 2013, dated 2020):

Tested on: Pig esophageal epithelium
Assay: in vitro permeation in the Franz cell (model of sublingual absorption)
Settings: Franz cell, pig esophageal epithelium, 37° C.
Method: Sublingual absorption of Fe++ compounds was evaluated by means of in vitro permeation experiments using the Franz cell exemplified in FIG. 1. Pig esophageal epithelium was used as membrane. This experimental model is recognized as valid and reliable in the assessment of sublingual absorption of drugs [I. Diaz Del Consuelo, G. P. Pizzolato, F. Falsom, R. H. Guy, and Y. Jacques.: Evaluation of pig esophageal mucosa as a permeability barrier model for buccosal tissue. J. Pharm. […] Arch. […] Membrane preparation occurred by following the method described here. The esophagi were taken from the animals within one hour after sacrifice. The mucosa was separated from the muscle tissue with a lancet. To separate the epithelium, the mucosa was immersed in distilled water at 60° C. for 2 minutes and then the epithelium was removed from the underlying tissue with the aid of a spatula. The tissues thus prepared were stored at −20° C. until the time of use, when they were thawed to room temperature before being mounted on the vertical diffusion cells of the Franz type, a schematic view of which is shown in FIG. 1. The esophageal epithelium was placed on a regenerated cellulose filter (pore diameter 0.45 μm) with the luminal side facing up, and mounted between the donor and receptor compartments of the Franz cells. […] The exposed surface was 0.6 cm^2. The receptor compartment was filled with approximately 4 ml of physiological solution (0.9% NaCl w/v) and kept under constant magnetic agitation for the entire duration of the experiment. The entire system was thermostat-controlled at 37° C. Sampling of the receptor compartment was performed by drawing 200 μl of receptor solution, which were replaced immediately with an equal volume of fresh physiological solution. The samples were taken at preset time intervals, specifically at 0, 1, 2, 3, 4, 5 and 6 hours.
4 g of powder were suspended in 10 ml of physiological solution and left under agitation for 15 minutes, then the solution was filtered with regenerated cellulose filters (pore diameter 0.45 μm).
6 g of powder were suspended in 10 ml of physiological solution. The suspension was left under magnetic agitation for 25 minutes and then filtered with regenerated cellulose filters (pore diameter 0.45 μm).
7 g of powder were suspended in 6 ml of physiological solution. The suspension was left under magnetic agitation for 1 hour; at the end it was filtered with regenerated cellulose filters (pore diameter 0.45 μm).
An excess of ascorbic acid (2 g) was added to the solution. The suspension was left under magnetic agitation for 30 minutes and after filtration through regenerated cellulose filters (pore diameter 0.45 μm) was used as it was.
4 g of powder were suspended in 10 ml of physiological solution. The suspension was left under magnetic agitation for 15 hours, at the end of which it was filtered with regenerated cellulose filters (pore diameter 0.45 μm).
An excess of powder was suspended in 10 ml of physiological solution. The suspension was left under magnetic agitation for 15 hours, at the end of which it was filtered with regenerated cellulose filters (pore diameter 0.45 μm).

## ferric citrate
  permeation / absorption through the epithelium (in words): appreciable only at very low pH values
